System: snake venom phosphodi-esterase (SVPD)
Conditions: SVPD 0.0005 U/mL, 50 mM Tris-HCl pH 7.5, 8 mM MgCl2, 37° C., oligomer 5 μm; full-length oligomer by IP-HPLC/MS
Procedure: [drawing 26] • The nuclease stability was determined after treatment with snake venom phosphodi-esterase (SVPD). Each of the test oligomers was incubated with SVPD (0.0005 U/mL) in 50 mM Tris-HCl, pH 7.5, 8 mM MgCl2 at 37° C. to a final concentration of 5 μm in a total volume of 400 μL. At each time point, a 50 μL aliquot and quenching buffer (8 M Urea, 50 mM EDTA) was placed in a 500 μL, microfuge tube. Kinetic time points were taken at 0, 0.5, 1, 1.5, 2, and 4 minutes for 7157; 0, 0.5, 1, 1.5, 2, 2.5, 3 and 5 minutes for 440140. The samples were then cooled on ice and spun in a Microfuge to bring the entire volume to the bottom of the tube. Samples were kept frozen until ready for LC/MS analysis.
For each sample the oligomer and metabolites were separated and analyzed using IP-HPLC/MS techniques. Samples were diluted to a concentration of 1 μM with quenching buffer in a microsampling vial and 50 μL of the sample was injected into the IP-HPLC column (YMC ODS-AQ™ 1.0 mm×150 mm, 3 μm, 120 A°). The loading buffer used was 25 mM TBAA (tributyl ammonium acetate) in 25% acetonitrile. […] The percentages of the full-length oligomers were calculated by integration using Caesar v. 6 software (Senetec Software, New Jersey) and the oligonucleotide half-lives were calculated using GraphPad Prism 4.

For TTTTTTTTTTTT [ISIS 7157], which “Half Life” value is on record?
The value was 24 s.

Reference: patent US8546556B2, “Carbocyclic alpha-L-bicyclic nucleic acid analogs” (Isis Pharmaceuticals, Inc, priority 2007, dated 2013)
